Data set [1] deals with T1, Interstitial collagenase (Homo sapiens, UniProt P03956).
T1 sequence (P03956 whole entry): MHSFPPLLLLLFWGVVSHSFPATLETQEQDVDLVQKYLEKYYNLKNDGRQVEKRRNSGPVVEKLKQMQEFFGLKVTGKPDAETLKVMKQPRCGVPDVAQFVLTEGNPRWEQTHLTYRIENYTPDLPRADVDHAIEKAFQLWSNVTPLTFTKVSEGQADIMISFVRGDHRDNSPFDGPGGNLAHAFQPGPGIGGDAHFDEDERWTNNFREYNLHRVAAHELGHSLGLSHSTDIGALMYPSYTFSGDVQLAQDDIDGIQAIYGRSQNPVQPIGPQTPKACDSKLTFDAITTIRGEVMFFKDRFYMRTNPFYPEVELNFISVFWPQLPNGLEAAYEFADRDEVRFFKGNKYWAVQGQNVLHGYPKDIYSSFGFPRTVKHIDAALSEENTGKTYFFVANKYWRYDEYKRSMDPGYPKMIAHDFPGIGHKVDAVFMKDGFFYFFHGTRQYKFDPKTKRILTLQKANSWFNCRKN
The data set can be described thus: Inhibition of MMP-1 (unknown origin) assessed as inhibition constant.

For data set [2], the system named is Jurkat E6.1. The data set can be described thus: Cytotoxicity against human Jurkat E6.1 cells incubated for 48 hrs by MTT assay. It counts as functional, cell-based. The note with it: Jurkat E6.1, 48 h. On the technique in general: Formazan colour is commonly taken as a measure of viable cells.
For another data set, the system named is U-937. The data set can be described thus: Cytotoxicity against human U-937 cells incubated for 48 hrs by MTT assay. Type of data set: functional, cell-based. To be noted: U-937, 48 h.
Another data set has as its system MOLT-4. The data set can be described thus: Cytotoxicity against human MOLT-4 cells incubated for 48 hrs by MTT assay. To be noted: MOLT-4, 48 h. Type of data set: functional, cell-based.
The subject of data set [3] is Jurkat E6.1. In words: Induction of apoptosis in human Jurkat E6.1 assessed as reduction in MMP-2 expression at 10 uM measured after 48 hrs by annexin V-FITC/propidium iodide staining based flow cytometry analysis relative to control. Type of data set: functional. Further details: scale not given: the % may be the effect or the level left.
The test system of data set [4] is Jurkat E6.1. The data set can be described thus: Induction of apoptosis in human Jurkat E6.1 assessed as reduction in MMP-2 expression at 20 uM measured after 48 hrs by annexin V-FITC/propidium iodide staining based flow cytometry analysis relative to control. It counts as functional. Further details: scale not given: the % may be the effect or the level left.
For data set [5], the system named is Jurkat E6.1. In words: Induction of apoptosis in human Jurkat E6.1 assessed as reduction in HDAC-8 expression at 10 uM measured after 48 hrs by annexin V-FITC/propidium iodide staining based flow cytometry analysis relative to control. Type of data set: functional. Details: scale not given: the % may be the effect or the level left. (In flow cytometry, cells or beads pass a laser one at a time.)

The test system of data set [6] is Jurkat E6.1. The data set can be described thus: Induction of apoptosis in human Jurkat E6.1 assessed as reduction in HDAC-8 expression at 20 uM measured after 48 hrs by annexin V-FITC/propidium iodide staining based flow cytometry analysis relative to control. Type of data set: functional. Further details: scale not given: the % may be the effect or the level left.

Data set [7] has as its target T2, Matrix metalloproteinase-9 (Homo sapiens, UniProt P14780). The data set can be described thus: Binding affinity to human MMP-9 assessed as residence time.
In data set [8] the target is T1, Interstitial collagenase. In words: Inhibition of MMP-1 (unknown origin).
The target in data set [9] is T3, 72 kDa type IV collagenase (Homo sapiens, UniProt P08253). The data set can be described thus: Inhibition of MMP-2 (unknown origin).
T3 sequence (P08253 whole entry): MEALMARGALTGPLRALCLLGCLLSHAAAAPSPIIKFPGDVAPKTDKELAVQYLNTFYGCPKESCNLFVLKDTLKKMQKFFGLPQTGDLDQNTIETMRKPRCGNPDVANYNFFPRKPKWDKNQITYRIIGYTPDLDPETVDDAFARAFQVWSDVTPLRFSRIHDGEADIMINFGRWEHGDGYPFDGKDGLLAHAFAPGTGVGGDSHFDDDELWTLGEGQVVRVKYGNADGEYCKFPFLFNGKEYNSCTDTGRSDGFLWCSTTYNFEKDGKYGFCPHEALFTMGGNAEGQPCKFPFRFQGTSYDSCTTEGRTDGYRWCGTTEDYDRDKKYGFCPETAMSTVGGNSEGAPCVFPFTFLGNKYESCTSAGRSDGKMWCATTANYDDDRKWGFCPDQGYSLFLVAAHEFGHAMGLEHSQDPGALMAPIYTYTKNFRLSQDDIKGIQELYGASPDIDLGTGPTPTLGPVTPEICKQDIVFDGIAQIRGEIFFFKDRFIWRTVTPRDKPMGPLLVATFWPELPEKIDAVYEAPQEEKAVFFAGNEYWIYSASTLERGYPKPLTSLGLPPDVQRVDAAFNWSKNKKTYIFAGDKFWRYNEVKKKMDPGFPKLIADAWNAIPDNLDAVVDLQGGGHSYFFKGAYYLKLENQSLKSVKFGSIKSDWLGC
For data set [10], the target named is T2, Matrix metalloproteinase-9. In words: Inhibition of MMP-9 (unknown origin).
The target of data set [11] is Matrix metalloproteinase-14 (Homo sapiens, UniProt P50281). The data set can be described thus: Inhibition of MMP-14 (unknown origin).
The target in the next data set is T4, Matrilysin (Homo sapiens, UniProt P09237).
T4 sequence (P09237 whole entry): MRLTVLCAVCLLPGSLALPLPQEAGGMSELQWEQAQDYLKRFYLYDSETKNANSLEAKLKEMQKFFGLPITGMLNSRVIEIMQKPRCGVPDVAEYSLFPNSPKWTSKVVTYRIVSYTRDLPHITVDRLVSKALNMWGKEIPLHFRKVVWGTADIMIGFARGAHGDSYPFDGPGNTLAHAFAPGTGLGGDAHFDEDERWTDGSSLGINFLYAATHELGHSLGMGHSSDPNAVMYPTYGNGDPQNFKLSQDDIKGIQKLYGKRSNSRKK
In words: Inhibition of MMP-7 (unknown origin).

For data set [12], the target named is T3, 72 kDa type IV collagenase. In words: Inhibition of MMP-2 (unknown origin) assessed as inhibition constant.
Data set [13] concerns the target T2, Matrix metalloproteinase-9. In words: Inhibition of MMP-9 (unknown origin) assessed as inhibition constant.
The target of data set [14] is T5, Neutrophil collagenase (Homo sapiens, UniProt P22894). The data set can be described thus: Inhibition of MMP-8 (unknown origin) assessed as inhibition constant.
T5 sequence (P22894 whole entry): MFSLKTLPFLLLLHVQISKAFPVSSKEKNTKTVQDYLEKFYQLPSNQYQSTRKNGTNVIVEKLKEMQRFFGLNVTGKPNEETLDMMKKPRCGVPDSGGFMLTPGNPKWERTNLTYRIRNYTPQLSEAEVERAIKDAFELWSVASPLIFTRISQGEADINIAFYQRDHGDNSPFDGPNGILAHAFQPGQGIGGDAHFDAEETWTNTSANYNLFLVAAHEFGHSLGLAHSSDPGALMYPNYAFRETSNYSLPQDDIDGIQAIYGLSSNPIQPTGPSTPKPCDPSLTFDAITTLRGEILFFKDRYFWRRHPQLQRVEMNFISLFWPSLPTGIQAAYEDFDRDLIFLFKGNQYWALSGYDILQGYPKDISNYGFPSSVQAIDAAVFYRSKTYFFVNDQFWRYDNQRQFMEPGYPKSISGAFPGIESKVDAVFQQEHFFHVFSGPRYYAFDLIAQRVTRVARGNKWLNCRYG
A short description of a further data set: physchem. The note with it: water.
Another data set deals with Stromelysin-1 (Homo sapiens, UniProt P08254). The data set can be described thus: Inhibition of human recombinant MMP-3 assessed as inhibition constant.
Stromelysin-1, sequence (P08254 whole entry): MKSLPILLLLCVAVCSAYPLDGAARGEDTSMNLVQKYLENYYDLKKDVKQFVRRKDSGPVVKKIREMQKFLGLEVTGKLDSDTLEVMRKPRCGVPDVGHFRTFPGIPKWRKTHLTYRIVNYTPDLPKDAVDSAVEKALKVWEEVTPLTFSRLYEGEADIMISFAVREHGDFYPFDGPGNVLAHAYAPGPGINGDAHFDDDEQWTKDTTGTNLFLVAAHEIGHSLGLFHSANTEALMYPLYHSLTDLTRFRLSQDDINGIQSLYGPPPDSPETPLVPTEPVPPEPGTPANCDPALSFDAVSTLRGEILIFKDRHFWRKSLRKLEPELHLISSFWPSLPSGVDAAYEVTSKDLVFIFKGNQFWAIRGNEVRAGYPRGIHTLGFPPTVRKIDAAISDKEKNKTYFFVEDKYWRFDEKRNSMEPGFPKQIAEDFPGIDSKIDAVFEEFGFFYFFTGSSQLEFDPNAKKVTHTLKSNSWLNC
Data set [15] addresses T5, Neutrophil collagenase. The data set can be described thus: Inhibition of MMP-8 (unknown origin).
Data set [16] deals with Macrophage metalloelastase (Homo sapiens, UniProt P39900). The data set can be described thus: Inhibition of MMP-12 (unknown origin).
Macrophage metalloelastase, sequence (P39900 whole entry): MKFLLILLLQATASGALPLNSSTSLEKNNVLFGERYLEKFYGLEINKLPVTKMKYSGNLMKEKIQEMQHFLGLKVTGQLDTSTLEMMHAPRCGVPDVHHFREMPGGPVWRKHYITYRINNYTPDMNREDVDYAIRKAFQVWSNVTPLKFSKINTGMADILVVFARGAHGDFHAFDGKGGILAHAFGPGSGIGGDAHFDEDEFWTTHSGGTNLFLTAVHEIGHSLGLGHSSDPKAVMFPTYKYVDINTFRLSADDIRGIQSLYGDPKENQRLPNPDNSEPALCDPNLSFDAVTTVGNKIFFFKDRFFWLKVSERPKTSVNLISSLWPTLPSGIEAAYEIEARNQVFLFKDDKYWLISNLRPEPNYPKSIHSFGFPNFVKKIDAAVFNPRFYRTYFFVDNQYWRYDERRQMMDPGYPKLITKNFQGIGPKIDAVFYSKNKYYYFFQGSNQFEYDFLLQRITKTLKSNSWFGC
The next data set concerns the target T6, Histone deacetylase 8 (Homo sapiens, UniProt Q9BY41).
T6 sequence (Q9BY41 whole entry): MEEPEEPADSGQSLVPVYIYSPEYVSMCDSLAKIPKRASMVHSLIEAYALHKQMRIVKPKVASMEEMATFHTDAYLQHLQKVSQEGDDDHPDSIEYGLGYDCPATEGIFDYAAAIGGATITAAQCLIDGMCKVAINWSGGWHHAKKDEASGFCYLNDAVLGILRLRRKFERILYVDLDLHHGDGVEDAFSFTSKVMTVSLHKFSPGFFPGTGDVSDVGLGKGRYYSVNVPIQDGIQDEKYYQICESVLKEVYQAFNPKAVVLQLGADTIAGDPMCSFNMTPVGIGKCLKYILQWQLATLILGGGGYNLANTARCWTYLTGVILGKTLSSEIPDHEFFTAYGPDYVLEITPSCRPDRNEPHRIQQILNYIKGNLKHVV
The data set can be described thus: Inhibition of HDAC-8 (unknown origin).

Data set [17] has as its system Jurkat E6.1. The data set can be described thus: Induction of apoptosis in human Jurkat E6.1 assessed as reduction in MMP-2 expression at 2 uM measured after 48 hrs by annexin V-FITC/propidium iodide staining based flow cytometry analysis relative to control. Type of data set: functional. Further details: scale not given: the % may be the effect or the level left.

Data set [18] concerns Jurkat E6.1. The data set can be described thus: Induction of apoptosis in human Jurkat E6.1 assessed as reduction in MMP-2 expression at 5 uM measured after 48 hrs by annexin V-FITC/propidium iodide staining based flow cytometry analysis relative to control. Type of data set: functional. Details: scale not given: the % may be the effect or the level left.
The subject of data set [19] is Jurkat E6.1. The data set can be described thus: Induction of apoptosis in human Jurkat E6.1 assessed as reduction in HDAC-8 expression at 2 uM measured after 48 hrs by annexin V-FITC/propidium iodide staining based flow cytometry analysis relative to control. It counts as functional. Details: scale not given: the % may be the effect or the level left.
Data set [20] concerns Jurkat E6.1. In words: Induction of apoptosis in human Jurkat E6.1 assessed as reduction in HDAC-8 expression at 5 uM measured after 48 hrs by annexin V-FITC/propidium iodide staining based flow cytometry analysis relative to control. It counts as functional. Details: scale not given: the % may be the effect or the level left.

T2 sequence (P14780 whole entry): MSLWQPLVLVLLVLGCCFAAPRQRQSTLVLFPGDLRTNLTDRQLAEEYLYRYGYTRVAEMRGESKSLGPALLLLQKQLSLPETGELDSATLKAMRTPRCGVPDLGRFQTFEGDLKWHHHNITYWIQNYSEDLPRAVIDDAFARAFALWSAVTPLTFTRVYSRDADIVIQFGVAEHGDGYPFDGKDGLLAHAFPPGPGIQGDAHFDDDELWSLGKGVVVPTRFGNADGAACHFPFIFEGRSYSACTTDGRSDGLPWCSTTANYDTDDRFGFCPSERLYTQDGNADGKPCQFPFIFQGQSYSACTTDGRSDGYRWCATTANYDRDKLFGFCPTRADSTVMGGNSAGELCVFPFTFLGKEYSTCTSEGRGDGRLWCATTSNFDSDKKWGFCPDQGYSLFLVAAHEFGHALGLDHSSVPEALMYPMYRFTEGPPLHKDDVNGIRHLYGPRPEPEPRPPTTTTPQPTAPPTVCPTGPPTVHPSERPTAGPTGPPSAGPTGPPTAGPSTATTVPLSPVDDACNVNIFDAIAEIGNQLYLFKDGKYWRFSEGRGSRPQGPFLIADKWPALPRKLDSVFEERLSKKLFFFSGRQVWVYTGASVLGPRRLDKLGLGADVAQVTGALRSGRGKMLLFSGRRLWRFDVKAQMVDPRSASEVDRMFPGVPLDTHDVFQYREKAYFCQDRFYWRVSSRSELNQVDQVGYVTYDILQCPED
Description for physchem: Solubility of the compound in water

As usually defined, the Ki is the equilibrium dissociation constant of an inhibitor or competing ligand from its target. Take `O=C(C[C@H](CSc1ccccc1)C(=O)O)c1ccc(-c2ccc(Cl)cc2)cc1` [TANOMASTAT]: the inhibition constant (Ki) at Interstitial collagenase [1] was above 5 µM.
Broadly, the IC50 is the concentration needed to halve the response being measured. Turning to `CC(C)NC(=O)C(CCC(=O)O)NC(=O)Cc1ccc(Cl)cc1` (stereo not drawn), the concentration for half-maximal inhibition (IC50) with Jurkat E6.1 [2] came out at 11.5 µM; in the data set on U-937 it was 29.4 µM; in the data set on MOLT-4, 11.8 µM. In addition, the Activity is recorded as 42% in the data set with Jurkat E6.1 [3], 58% in the data set with Jurkat E6.1 [4], 32% in the data set on Jurkat E6.1 [5] and 58% in the data set with Jurkat E6.1 [6].
For `O=S(=O)(CC1CS1)c1ccc(Oc2ccccc2)cc1` (stereo not drawn), in data set [7], the TIME is 0.223 h.
Consider `CNC(=O)[C@@H](NC(=O)[C@H](CC(C)C)NC(=O)[C@@H](S)CCN1C(=O)N(C)C(C)(C)C1=O)C(C)(C)C` [REBIMASTAT], for which the half-maximal inhibitory concentration (IC50) at Interstitial collagenase [8] is 0.009 µM; in [9], 0.039 µM; in data set [10], 0.027 µM; in data set [11], 0.04 µM; against Matrilysin, 0.023 µM.
`CN1C(=O)N(C[C@H](C(=O)NO)[C@H](CC2CCCC2)C(=O)N2CCCCC2)C(=O)C1(C)C`: the inhibition constant (Ki) in data set [12] turned out to be 0.154 µM; in data set [13], 0.059 µM; on Neutrophil collagenase [14], 0.0044 µM.
In general, solubility refers to the concentration that dissolves in the medium under given conditions. In the case of `N=C(N)NCCC[C@H](N)C(=O)Nc1ccc(Oc2ccc(S(=O)(=O)CC3CS3)cc2)cc1` (stereo partly drawn), the solubility in the data set “physchem” is above 10000 µg/mL.
Turning to `COc1ccc(S(=O)(=O)N(Cc2ccccc2)[C@@H](C(=O)NO)C(C)C)cc1`, at Stromelysin-1, the Ki was determined as 0.043 µM.
For the compound `O=C(O)CCC(NC(=O)Cc1ccc(Br)cc1)C(=O)NCc1ccc([N+](=O)[O-])cc1` (stereo not drawn), the half-maximal inhibitory concentration (IC50) is above 250 µM on Interstitial collagenase [8]; 6.4 µM in data set [9]; 4.83 µM in [10]; 56.3 µM in [11]; 206 µM on Neutrophil collagenase [15]; 138 µM in [16]. The IC50 against Histone deacetylase 8 worked out at 2.89 µM; in the data set with Jurkat E6.1 [2], 2.77 µM; in the data set with U-937, 10.6 µM; in the data set with MOLT-4 it was 4.58 µM. Moreover, the Activity in the data set with Jurkat E6.1 [17] is 46%; in the data set on Jurkat E6.1 [18], 70%; with Jurkat E6.1 [19], 48%; with Jurkat E6.1 [20] it was 68%.

Values taken from ChEMBL document CHEMBL5230143, “Inhibitors of gelatinases (MMP-2 and MMP-9) for the management of hematological malignancies” (Eur J Med Chem, 2021).
